Measurements published in PubChem BioAssay (NCI).
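Test compounds were applied to cells in 96-well plates for 48 hours at 5 doses. Definition used: TGI = concentration required for complete inhibition of growth.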

Tests used:
Assay in all cases: NCI tumour cell line growth inhibition, 48 h
KM12 colon = test system: KM12 colon
COLO 205 colon = test system: COLO 205 colon
LOX IMVI melanoma = test system: LOX IMVI melanoma
TK-10 renal = test system: TK-10 renal
UACC-62 melanoma = test system: UACC-62 melanoma
DMS 114 small cell lung = test system: DMS 114 small cell lung
MOLT-4 leukemia = test system: MOLT-4 leukemia
NCI-H23 lung = test system: NCI-H23 lung
RPMI-8226 leukemia = test system: RPMI-8226 leukemia
XF 498 CNS = test system: XF 498 CNS
NCI-H460 lung = test system: NCI-H460 lung
LXFL 529 NSCLC = test system: LXFL 529 NSCLC
CCRF-CEM leukemia = test system: CCRF-CEM leukemia
SK-MEL-2 melanoma = test system: SK-MEL-2 melanoma
UACC-257 melanoma = test system: UACC-257 melanoma
M14 melanoma = test system: M14 melanoma
A498 renal = test system: A498 renal
SK-MEL-28 melanoma = test system: SK-MEL-28 melanoma
HOP-92 NSCLC = test system: HOP-92 NSCLC
KM20L2 colon = test system: KM20L2 colon
SNB-78 CNS = test system: SNB-78 CNS
IGROV1 ovarian = test system: IGROV1 ovarian
786-0 renal = test system: 786-0 renal
OVCAR-3 ovarian = test system: OVCAR-3 ovarian
EKVX NSCLC = test system: EKVX NSCLC
RXF-631 renal = test system: RXF-631 renal
NCI-H522 lung = test system: NCI-H522 lung
A549 NSCLC = test system: A549 NSCLC
OVCAR-5 ovarian = test system: OVCAR-5 ovarian
DLD-1 colon = test system: DLD-1 colon
HT29 colon = test system: HT29 colon
SK-OV-3 ovarian = test system: SK-OV-3 ovarian
M19-MEL melanoma = test system: M19-MEL melanoma
HOP-62 NSCLC = test system: HOP-62 NSCLC
HL-60(TB) leukemia = test system: HL-60(TB) leukemia
SF-539 CNS = test system: SF-539 CNS
SNB-75 CNS = test system: SNB-75 CNS
OVCAR-8 ovarian = test system: OVCAR-8 ovarian
K-562 leukemia = test system: K-562 leukemia
SW-620 colon = test system: SW-620 colon
U251 CNS = test system: U251 CNS
DMS 273 small cell lung = test system: DMS 273 small cell lung
HCC-2998 colon = test system: HCC-2998 colon
HCT-116 colon = test system: HCT-116 colon
UO-31 renal = test system: UO-31 renal
ACHN renal = test system: ACHN renal
MALME-3M melanoma = test system: MALME-3M melanoma
RXF 393 renal = test system: RXF 393 renal
CAKI-1 renal = test system: CAKI-1 renal
SK-MEL-5 melanoma = test system: SK-MEL-5 melanoma
SF-268 CNS = test system: SF-268 CNS
SF-295 CNS = test system: SF-295 CNS
SN12C renal = test system: SN12C renal
OVCAR-4 ovarian = test system: OVCAR-4 ovarian
HOP-18 NSCLC = test system: HOP-18 NSCLC
HCT-15 colon = test system: HCT-15 colon
SNB-19 CNS = test system: SNB-19 CNS
NCI-H226 lung = test system: NCI-H226 lung
SR leukemia = test system: SR leukemia

Measured: TGI

CC(O)C(C(=O)O)N(CC1(O)OCC(O)C(O)C1O)N=O (stereo unspecified)
not listed: CAKI-1 renal | SK-MEL-5 melanoma | SF-268 CNS | SF-295 CNS | SN12C renal | OVCAR-4 ovarian | HOP-18 NSCLC | HCT-15 colon | SNB-19 CNS | NCI-H226 lung | SR leukemia
> 100 µM: all other assays above

O=S1[C@H](c2ccccc2)c2c(-c3ccccc3)sc(-c3ccccc3)c2[C@@H]1c1ccccc1 (stereo partly specified)
87.9 µM: SNB-75 CNS
40.6 µM: HL-60(TB) leukemia
67.9 µM: HOP-92 NSCLC
27.2 µM: NCI-H522 lung
not listed: XF 498 CNS | A498 renal | SNB-78 CNS | HCT-116 colon | NCI-H226 lung | SR leukemia
> 100 µM: all other assays above

COc1ccc(Nc2nc(C#N)c(N)s2)cc1
89.6 µM: TK-10 renal
77.8 µM: RPMI-8226 leukemia
60.3 µM: ACHN renal
89.2 µM: HL-60(TB) leukemia
56.1 µM: LOX IMVI melanoma
91.3 µM: SF-295 CNS
47.8 µM: NCI-H23 lung
64 µM: XF 498 CNS
not listed: DMS 114 small cell lung | MOLT-4 leukemia | CCRF-CEM leukemia | A498 renal | EKVX NSCLC | M19-MEL melanoma | HCC-2998 colon | RXF 393 renal | SK-MEL-5 melanoma | HOP-18 NSCLC | SR leukemia
> 100 µM: all other assays above

Cn1ccnc1Cn1cc(-c2cccc(-c3cn[nH]c3)c2)cn1
99.8 µM: EKVX NSCLC
41.9 µM: SK-OV-3 ovarian
49 µM: UACC-62 melanoma
not listed: NCI-H23 lung | IGROV1 ovarian | OVCAR-5 ovarian | HT29 colon | SF-539 CNS | MALME-3M melanoma | HOP-18 NSCLC | NCI-H226 lung
> 100 µM: all other assays above

O=C1CCC(=O)N1CNc1cccc(NCN2C(=O)CCC2=O)c1
49.8 µM: HL-60(TB) leukemia
28.4 µM: KM20L2 colon
46.1 µM: RPMI-8226 leukemia
not listed: LOX IMVI melanoma | DMS 114 small cell lung | A498 renal | SK-OV-3 ovarian | CAKI-1 renal | HOP-18 NSCLC | NCI-H226 lung | SR leukemia
> 100 µM: all other assays above
